Test results: patent US5990118A, “Purine compounds and xanthine oxidase inhibitors” (Yamasa Corporation, priority 1995, dated 1999)

The compounds below were run against T1, bovine-milk-derived xanthine oxidase (XOD) (Bos taurus, UniProt P80457) (assay: Xanthine oxidase inhibitory activity (inhibition of uricogenesis from xanthine, absorbance at 292 nm)). Settings: xanthine 100 μM, XOD 10 mU/ml, 50 mM phosphate buffer pH 7.4, 15 minutes, room temperature.
T1 construct: from tissue; host or cells: bovine milk
Format: biochemical
Method: Test Example: Xanthine oxidase inhibitory activity
Xanthine (100 μM), bovine-milk-derived xanthine oxidase (XOD) (10 mU/ml), and a test compound were mixed in 50 mM phosphate buffer (pH 7.4), and the mixture was incubated for 15 minutes at room temperature. Transformation of xanthine into uric acid was measured as the change in absorbance (O.D.) at 292 nm, to thereby investigate the inhibitory effect of the test compound against uricogenesis.
The inhibition ratio against uricogenesis was calculated from the following equation, and a dose-response curve of each compound was obtained.
Inhibition ratio against uricogenesis (%)=100-[(D-DB)/T]×100
T: O.D. of a solution of "xanthine+XOD"
D: O.D. of a solution of "test compound+xanthine+XOD"
DB: O.D. of a solution of "test compound+XOD"

T1 sequence (P80457 whole entry): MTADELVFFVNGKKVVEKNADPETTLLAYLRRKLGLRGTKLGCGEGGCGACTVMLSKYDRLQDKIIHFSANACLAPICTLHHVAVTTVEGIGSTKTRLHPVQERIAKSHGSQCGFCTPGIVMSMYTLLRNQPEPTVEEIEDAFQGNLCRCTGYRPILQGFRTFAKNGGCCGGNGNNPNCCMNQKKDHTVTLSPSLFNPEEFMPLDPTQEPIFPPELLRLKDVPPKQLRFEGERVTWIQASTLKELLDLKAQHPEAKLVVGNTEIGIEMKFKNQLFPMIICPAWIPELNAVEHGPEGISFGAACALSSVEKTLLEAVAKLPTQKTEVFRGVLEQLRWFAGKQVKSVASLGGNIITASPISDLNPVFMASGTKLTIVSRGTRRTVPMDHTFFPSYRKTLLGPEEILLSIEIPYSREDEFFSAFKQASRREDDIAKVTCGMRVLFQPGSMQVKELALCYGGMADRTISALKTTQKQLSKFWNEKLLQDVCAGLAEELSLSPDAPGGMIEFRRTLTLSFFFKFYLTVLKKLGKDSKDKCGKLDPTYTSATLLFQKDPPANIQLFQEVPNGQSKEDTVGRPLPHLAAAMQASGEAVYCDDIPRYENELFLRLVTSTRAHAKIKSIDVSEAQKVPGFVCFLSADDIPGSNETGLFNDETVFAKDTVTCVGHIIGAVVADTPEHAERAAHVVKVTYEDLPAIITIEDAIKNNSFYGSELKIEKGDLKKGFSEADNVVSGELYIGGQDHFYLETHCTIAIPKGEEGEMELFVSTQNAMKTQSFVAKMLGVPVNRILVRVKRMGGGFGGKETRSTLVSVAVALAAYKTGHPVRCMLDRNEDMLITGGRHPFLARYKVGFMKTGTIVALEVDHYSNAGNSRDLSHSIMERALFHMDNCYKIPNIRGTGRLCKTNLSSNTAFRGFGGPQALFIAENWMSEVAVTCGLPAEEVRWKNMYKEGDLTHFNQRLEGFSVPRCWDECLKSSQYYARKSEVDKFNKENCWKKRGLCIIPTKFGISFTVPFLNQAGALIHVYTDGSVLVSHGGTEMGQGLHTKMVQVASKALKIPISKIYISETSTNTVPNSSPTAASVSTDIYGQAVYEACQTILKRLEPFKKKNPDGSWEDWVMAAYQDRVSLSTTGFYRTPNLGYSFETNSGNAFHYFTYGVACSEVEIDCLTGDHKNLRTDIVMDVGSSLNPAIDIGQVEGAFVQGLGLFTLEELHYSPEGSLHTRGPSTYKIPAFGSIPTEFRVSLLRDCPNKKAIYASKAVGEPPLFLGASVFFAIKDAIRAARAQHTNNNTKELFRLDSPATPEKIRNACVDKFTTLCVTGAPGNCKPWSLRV

| SMILES | IC50 [nM] |
| --- | --- |
| COc1ccc(C=NN(C)c2nc(=S)[nH]c3[nH]cnc23)cc1 [Compound 19a, 6-[2-(4-methoxybenzylidene)-1-methylhydrazino]-9H-purine-2(3H)-thione] | 681 |
| O=c1[nH]c2[nH]cnc2c2nnc(-c3ccc(Cl)cc3)n12 [Compound 11e, 3-p-chlorophenyl-7H-[1,2,4]triazolo[3,4-i]purine-5(6H)-one] | 156 |
| CN(C)c1ccc(C=NNc2nc(=S)[nH]c3[nH]cnc23)cc1 [Compound 17b, 6-p-N,N-dimethylaminobenzylidenehydrazino-9H-purine-2(3H)-thione] | 865 |
| Cc1nnc2c3nc[nH]c3[nH]c(=S)n12 [Compound 5b, 3-methyl-7H-[1,2,4]triazolo[3,4-i]purine-5(6H)-thione] | 7910 |
| S=c1[nH]c2[nH]cnc2c2nnc(-c3ccccc3)n12 [Compound 5c, 3-phenyl-7H-[1,2,4]triazolo[3,4-i]purine-5(6H)-thione] | 2950 |
| Fc1ccc(C=NNc2nc(=S)[nH]c3[nH]cnc23)cc1 [Compound 17a, 6-p-fluorobenzylidenehydrazino-9H-purine-2(3H)-thione] | 336 |
| O=[N+]([O-])c1ccc(C=NNc2nc(=S)[nH]c3[nH]cnc23)cc1 [Compound 17c, 6-p-nitrobenzylidenehydrazino-9H-purine-2(3H)-thione] | 1180 |
| O=c1[nH]c2[nH]cnc2c2nnc(-c3ccccc3)n12 [Compound 11c, 3-phenyl-7H-[1,2,4]triazolo[3,4-i]purine-5(6H)-one] | 2570 |
| CN(N=Cc1ccc(F)cc1)c1nc(=S)[nH]c2[nH]cnc12 [Compound 19b, 6-[2-(4-fluorobenzylidene)-1-methylhydrazino]-9H-purine-2(3H)-thione] | 667 |
| COc1ccc(-c2nnc3c4nc[nH]c4[nH]c(=S)n23)cc1 [Compound 5d, 3-p-methoxyphenyl-7H-[1,2,4]triazolo[3,4-i]purine-5(6H)-thione] | 3020 |

The next lines start with the values.

| IC50 [nM] | SMILES |
| --- | --- |
| 2320 | CN(C)c1ccc(C=NNc2nc(Cl)nc3[nH]cnc23)cc1 [Compound 3f, 2-chloro-6-p-N,N-dimethylaminobenzylidenehydrazino-9H-purine] |
| 2710 | Clc1nc(NN=Cc2ccccc2)c2nc[nH]c2n1 [Compound 3b, 6-benzylidenehydrazino-2-chloro-9H-purine] |
| 801 | COc1ccc(C=NNc2nc(Cl)nc3[nH]cnc23)cc1 [Compound 3e, 2-chloro-6-p-methoxybenzylidenehydrazino-9H-purine] |
| 927 | Clc1ccc(C=NNc2nc(Cl)nc3[nH]cnc23)cc1 [Compound 3d, 2-chloro-6-p-chlorobenzylidenehydrazino-9H-purine] |
| 1150 | Clc1nc(NN=Cc2ccc3c(c2)OCO3)c2nc[nH]c2n1 [Compound 3g, 2-chloro-6-(3,4-methylenedioxybenzylidenehydrazino)-9H-purine] |
| 764 | Oc1ccc(C=NNc2nc(Cl)nc3[nH]cnc23)cc1 [Compound 3i, 2-chloro-6-p-hydroxybenzylidenehydrazino-9H-purine] |
| 1960 | Fc1ccc(C=NNc2nc(Cl)nc3[nH]cnc23)cc1 [Compound 3c, 2-chloro-6-p-fluorobenzylidenehydrazino-9H-purine] |
| 969 | COc1ccc(C=NNc2nc(=S)[nH]c3[nH]cnc23)cc1 [Compound 17d, 6-p-methoxybenzylidenehydrazino-9H-purine-2(3H)-thione] |
| 235 | S=c1nc(NN=Cc2ccc3c(c2)OCO3)c2nc[nH]c2[nH]1 [Compound 17e, 6-(3,4-methylenedioxybenzylidenehydrazino)-9H-purine-2(3H)-thione] |
